Reference: patent publication US20250228865A1, “COMPOUNDS FOR ENHANCING READ THROUGH OF GENES CONTAINING PREMATURE TERMINATION CODONS AND METHODS FOR MAKING AND USING THE SAME” (Sanofi US Services Inc., priority 2022, published 2025)

Tests used:
[1] = test system: recombinant human CFTR carrying the premature stop codon (PTC) mutation R1162X; assay: CFTR-PTC mutant translation readthrough, Nanoluc tagged CFTR luminescence (R1162X cell line); assay type: cell-based; details: for CFTR R1162X ACTIVITY Fold 10 μM G-418: fold over 10 μM G-418, in combination with G418; for EC50: in combination with G418, 16HBE cells, read-out: CFTR R1162X ACTIVITY EC50
How it was run: (§1)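 16HBE cells stably expressing Nanoluc-tagged human CFTR with G542X or R1162X, in medium with 3 μM VX-809, treated 48 h at 37 °C with compound (10-point, 2-fold, top 50 μM final) alone or with 10 μM G418. Live-cell Nanoluc luminescence normalised to a maximally effective G418 (125-250 μM).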

[2] = test system: recombinant human CFTR carrying the premature stop codon (PTC) mutation G542X; assay: CFTR-PTC mutant translation readthrough, Nanoluc tagged CFTR luminescence (G542X cell line); assay type: cell-based; details: in combination with G418, G542X cell line; for CFTR G542X ACTIVITY Fold 10 μM G-418: fold over 10 μM G-418; for EC50: 16HBE cells
How it was run: as §1

| Structure (SMILES) | CFTR R1162X ACTIVITY Fold 10 μM G-418 [1] | EC50 [1] [µM] | CFTR G542X ACTIVITY Fold 10 μM G-418 [2] | EC50 [2] [µM] |
| --- | --- | --- | --- | --- |
| NCc1ccn(-c2ccc(OCc3c(Cl)cccc3Cl)cc2)n1 [[1-[4-[(2,6-dichlorophenyl)methoxy]phenyl]pyrazol-3-yl]methanamine] | A′ (A′ = ≥10X) | 1 to 10 | B′ (B′ = ≥5X to <10X) | 1 to 10 |
| O=C1OC(CO)CN1c1ccc(OCc2c(Cl)cccc2Cl)c(F)c1 (stereo not drawn) | C′ (C′ = <5X) | 1 to 10 | B′ (B′ = ≥5X to <10X) | 1 to 10 |
| OCC1CN(c2ncc(OCc3c(Cl)cccc3Cl)cn2)CCN1 (stereo not drawn) [[4-[5-[(2,6-dichlorophenyl)methoxy]pyrimidin-2-yl]piperazin-2-yl]methanol] | A′ (A′ = ≥10X) | 1 to 10 | A′ (A′ = ≥10X) | 1 to 10 |
| Cc1cccc(C(F)(F)F)c1COc1cnc(N2CCO[C@H](CN)C2)nc1 | A′ (A′ = ≥10X) | < 1 | A′ (A′ = ≥10X) | < 1 |
| OCCOCCN1CCN(c2ncc(OCc3c(Cl)cccc3Cl)cn2)CC1 | A′ (A′ = ≥10X) | < 1 | A′ (A′ = ≥10X) | < 1 |
| NC(=O)c1ccn(-c2ncc(OCc3c(Cl)cccc3C(F)(F)F)cn2)n1 | A′ (A′ = ≥10X) | < 1 | A′ (A′ = ≥10X) | < 1 |
| OCCn1ccc(Nc2ccc(OCc3c(Cl)cccc3Cl)cn2)n1 [2-[3-[[5-[(2,6-dichlorophenyl)methoxy]-2-pyridyl]amino]pyrazol-1-yl]ethanol] | A′ (A′ = ≥10X) | 1 to 10 | A′ (A′ = ≥10X) | 1 to 10 |
| OCc1cn(-c2ncc(OCc3c(Cl)cccc3C(F)(F)F)cn2)nn1 | A′ (A′ = ≥10X) | 1 to 10 | A′ (A′ = ≥10X) | 1 to 10 |
| Cn1cc(-c2ccc(OCc3c(Cl)cccc3Cl)cn2)nn1 [5-[(2,6-dichlorophenyl)methoxy]-2-(1-methyltriazol-4-yl)pyridine] | A′ (A′ = ≥10X) | 1 to 10 | A′ (A′ = ≥10X) | 1 to 10 |
| OCC1CN(c2ccc(OCc3c(Cl)cccc3C(F)(F)F)cn2)CCO1 (stereo not drawn) | A′ (A′ = ≥10X) | < 1 | A′ (A′ = ≥10X) | < 1 |
| Cc1cccc(C(F)(F)F)c1COc1cnc(N2CCC(O)(CCO)CC2)nc1 | A′ (A′ = ≥10X) | < 1 | A′ (A′ = ≥10X) | < 1 |
| OC[C@@H]1CN(c2ncc(OCc3c(Cl)cccc3Cl)cn2)CC[C@@H]1O (racemic) | A′ (A′ = ≥10X) | 1 to 10 | A′ (A′ = ≥10X) | < 1 |
| OCc1cc(-c2ccc(OCc3c(Cl)cccc3Cl)cc2)no1 [[3-[4-[(2,6-dichlorophenyl)methoxy]phenyl]isoxazol-5-yl]methanol] | A′ (A′ = ≥10X) | 1 to 10 | A′ (A′ = ≥10X) | 1 to 10 |
| NC(=O)N1CCN(c2ncc(OCc3c(Cl)cccc3Cl)cn2)CC1CO (stereo not drawn) | A′ (A′ = ≥10X) | < 1 | A′ (A′ = ≥10X) | < 1 |
| Cc1cccc(C(F)(F)F)c1COc1ccc(-n2cnc(C(=O)O)n2)cc1 | A′ (A′ = ≥10X) | 1 to 10 | A′ (A′ = ≥10X) | 1 to 10 |
| OCc1cc(-c2ccc(OCc3c(Cl)cccc3Cl)cn2)no1 [[3-[5-[(2,6-dichlorophenyl)methoxy]-2-pyridyl]isoxazol-5-yl]methanol] | A′ (A′ = ≥10X) | 1 to 10 | A′ (A′ = ≥10X) | < 1 |

| Structure (SMILES) | CFTR R1162X ACTIVITY Fold 10 μM G-418 [1] | EC50 [1] [µM] | CFTR G542X ACTIVITY Fold 10 μM G-418 [2] | EC50 [2] [µM] |
| --- | --- | --- | --- | --- |
| O=C1OC(CO)CN1c1ccc(OCc2c(Cl)cc(F)cc2Cl)cc1 (stereo not drawn) | B′ (B′ = ≥5X to <10X) | > 10 | B′ (B′ = ≥5X to <10X) | > 10 |
| CN1CCN(c2ncc(OCc3c(Cl)cccc3Cl)cn2)CC1=O [4-[5-[(2,6-dichlorophenyl)methoxy]pyrimidin-2-yl]-1-methyl-piperazin-2-one] | A′ (A′ = ≥10X) | 1 to 10 | A′ (A′ = ≥10X) | 1 to 10 |
| CCc1cccc(C(F)(F)F)c1COc1cnc(-n2cnc(CO)c2)nc1 | A′ (A′ = ≥10X) | < 1 | A′ (A′ = ≥10X) | < 1 |
| O=C1OC(CO)CN1c1ccc(OCc2cc(Cl)cc(Cl)c2)cc1 (stereo not drawn) [3-[4-[(3,5-dichlorophenyl)methoxy]phenyl]-5-(hydroxymethyl)oxazolidin-2-one] | B′ (B′ = ≥5X to <10X) | > 10 | B′ (B′ = ≥5X to <10X) | 1 to 10 |
| O=C1CN(c2ncc(OCc3c(Cl)cccc3C(F)(F)F)cn2)C(=O)N1 | A′ (A′ = ≥10X) | 1 to 10 | A′ (A′ = ≥10X) | 1 to 10 |
| O=C(O)C1CCN(c2ncc(OCc3c(Cl)cccc3C(F)(F)F)cn2)CC1 [1-(5-{[2-chloro-6-(trifluoromethyl)phenyl]methoxy}pyrimidin-] | C′ (C′ = <5X) | 1 to 10 | C′ (C′ = <5X) | 1 to 10 |
| Cc1cccc(C(F)(F)F)c1COc1cnc(-n2cnnc2)nc1 [5-[[2-methyl-6-(trifluoromethyl)phenyl]methoxy]-2-(1,2,4-triazol-4-yl)pyrimidine] | A′ (A′ = ≥10X) | 1 to 10 | A′ (A′ = ≥10X) | 1 to 10 |
| O=C1O[C@H](CO)CN1c1ccc(OCc2c(Cl)cccc2C(F)(F)F)cn1 | A′ (A′ = ≥10X) | 1 to 10 | A′ (A′ = ≥10X) | 1 to 10 |
| Cc1cccc(OC(F)F)c1COc1cnc(-n2ccc(CO)n2)nc1 | C′ (C′ = <5X) | 1 to 10 | A′ (A′ = ≥10X) | 1 to 10 |
| CCCCN1CC(=O)N(c2ccc(OCc3c(C)cccc3C(F)(F)F)cc2)C1=O | B′ (B′ = ≥5X to <10X) | 1 to 10 | B′ (B′ = ≥5X to <10X) | 1 to 10 |
| O=CN[C@@H](CO)C(=O)Nc1ccc(OCc2c(Cl)cccc2Cl)cn1 | B′ (B′ = ≥5X to <10X) | > 10 | – | > 10 |
| NC[C@@H]1CN(c2ncc(OCc3c(Cl)cccc3Cl)cn2)CCO1 | A′ (A′ = ≥10X) | 1 to 10 | B′ (B′ = ≥5X to <10X) | < 1 |
| OCC1CCCN(c2ncc(OCc3c(Cl)cccc3Cl)cn2)C1 (stereo not drawn) [[1-[5-[(2,6-dichlorophenyl)methoxy]pyrimidin-2-yl]-3-piperidyl]methanol] | A′ (A′ = ≥10X) | 1 to 10 | A′ (A′ = ≥10X) | 1 to 10 |
| Cc1cccc(C(F)(F)F)c1COc1cnc(N2CCC(O)C(C)(C)C2)nc1 (stereo not drawn) | A′ (A′ = ≥10X) | < 1 | A′ (A′ = ≥10X) | < 1 |
| Cc1cccc(C(C)(F)F)c1COc1ccc(N2CC(CO)NC2=O)nc1 (stereo not drawn) | A′ (A′ = ≥10X) | 1 to 10 | A′ (A′ = ≥10X) | 1 to 10 |
